Read-outs that look alike come from different tables or passages of the source.
Legend:
[1] = Particle size analysis of paclitaxel nanoparticles lots (ACCUSIZER 780); assay type: physicochemical; conditions: nanoparticle API in 0.1% w/w SDS solution
Protocol: Instrument parameters: Max. Concentration: 9000 particles/mL, No. containers: 1, Sensor Range: Summation, Lower Detection Limit: 0.5 μm, Flow Rate: 30 mL/min, No. Analysis pulls: 4, Time between pulls: 1 sec, Pull volume: 10 mL, Tare Volume: 1 mL, Prime volume: 1 mL, Include First Pull: Not Selected.
Vortexed for 5-10 minutes and sonicated in a water batch for 1 minute.
Method: Filled a plastic bottle with filtered (0.22 μm) 0.1% w/w SDS solution and analyzed the Background.

[2] = Observations of paclitaxel nanoparticle crystals in various substances and solutions of substances (light microscopy); assay type: physicochemical
[3] = tested on: intact human cadaver skin; assay: In vitro skin penetration diffusion study (Franz diffusion cell); assay type: in vitro ADME; conditions: results in Table 14 (formulas F1 through F13)
Protocol: The skin was centered and the edges flattened out. […] Additional receptor fluid was added where necessary.
Cells were left uncapped during the experiment.

[4] = methanol/water 15/85 (v/v), 37° C., pH 7, 75 rpm, cited from earlier work

For CC(=O)O[C@H]1C(=O)[C@@]2(C)[C@H]([C@H](OC(=O)c3ccccc3)[C@]3(O)C[C@H](OC(=O)[C@H](O)[C@@H](NC(=O)c4ccccc4)c4ccccc4)C(C)=C1C3(C)C)[C@]1(OC(C)=O)CO[C@@H]1C[C@@H]2O [Paclitaxel nanoparticles lot used in formulas listed in Tabl] [listing 1 of 2 here], which “Particle size, Mean (number-weighted differential distribution)” value [1] is on record?
Its value is 0.861 μm.

What about the “Particle size, Median (number-weighted differential distribution)” value [1] of the same compound?
Its value is 0.710 μm.

What about the “Particle size, Mode (number-weighted differential distribution)” value [1] of the same compound?
Its value is 0.572 μm.

Which “Particle size, Mean (number-weighted differential distribution)” value [1] does the source give for CC(=O)O[C@H]1C(=O)[C@@]2(C)[C@H]([C@H](OC(=O)c3ccccc3)[C@]3(O)C[C@H](OC(=O)[C@H](O)[C@@H](NC(=O)c4ccccc4)c4ccccc4)C(C)=C1C3(C)C)[C@]1(OC(C)=O)CO[C@@H]1C[C@@H]2O [Paclitaxel nanoparticles lot used in formulas listed in Tabl] [listing 2 of 2 here] here?
The value was 0.83 μm.

For CC(=O)O[C@H]1C(=O)[C@@]2(C)[C@H]([C@H](OC(=O)c3ccccc3)[C@]3(O)C[C@H](OC(=O)[C@H](O)[C@@H](NC(=O)c4ccccc4)c4ccccc4)C(C)=C1C3(C)C)[C@]1(OC(C)=O)CO[C@@H]1C[C@@H]2O [Paclitaxel nanoparticles, paclitaxel], which “Visual observation by light microscopy- Needle shaped crystals observed?” value (shortened to “Visual observation”) ([2]; in Aluminum sulfate 0.1-0.2% in water, @ 7 days, RT) is on record?
Its value is “Yes, >5 μm, @”.

And the “Visual observation” value ([2]; in Ammonium lauryl sulfate 2% in water, @ 3 days, RT)?
Its value is “Yes, >5 μm @”.

And the “Visual observation” value ([2]; in Benzalkonium chloride (50%) 2% in water, @ 7 days & 21 days, RT)?
The value was “No, <5 μm @”.

What about the “Visual observation” value ([2]; in CARBOPOL ULTREZ 10 (with Ammonium hydroxide as neutralizer) 0.5% in water, @ 8 days & 21 days, RT) of the same compound?
Its value is “No, <5 μm, @ 8”.

What about the “Visual observation” value ([2]; in Castor Oil 100%, @ 24 hrs & 9 days, RT) of the same compound?
Its value is “No, <5 μm @ 24”.

And the “Visual observation” value ([2]; in Dimethicone, 1000 cSt 100%, @ 24 hrs & 6 days, RT)?
Its value is “No, <5 μm @ 24”.

What about the “Visual observation” value ([2]; in FOMBLIN HC04 100%, @ 4, 7 & 13 days, RT) of the same compound?
Its value is “No, <5 μm @ 4,”.

And the “Visual observation” value ([2]; in Hydroxyethyl cellulose 1% in water, @ 7 days, RT)?
Its value is “Yes, >5 μm, @”.

What about the “Visual observation” value ([2]; in Hydroxypropyl methylcellulose 1% in water, @ 3 days, RT) of the same compound?
The value was “Yes, >5 μm @”.

And the “Visual observation” value ([2]; in Lecithin 1% in water, @ 24 hrs, RT)?
The value was “Yes, >10 μm, @”.

And the “Visual observation” value ([2]; in Light Mineral Oil NF 100%, @ 3 days, RT & 40 C.)?
Its value is “No, <5 μm @ 3”.

What about the “Visual observation” value ([2]; in Magnesium nitrate 5% in water, @ 3 days, RT) of the same compound?
Its value is “Yes, >5 μm @”.

And the “Visual observation” value ([2]; in Mannitol 5% in water, @ 7 days, RT)?
The value was “Yes, >5 μm, @”.

What about the “Visual observation” value ([2]; in Mineral Oil USP (heavy) 100%, @ 3 days, RT & 40 C.) of the same compound?
The value was “No, <5 μm @ 3”.

And the “Visual observation” value ([2]; in PEG 400 10% in water, @ 22 days, RT & 60 C.)?
Its value is “Yes, >5 μm @ 22”.

What about the “Visual observation” value ([2]; in Poloxamer 188 2% in water, @ 7 days, RT) of the same compound?
The value was “Yes, >5 μm @ 7”.

And the “Visual observation” value ([2]; in Poloxamer 407 2% in water, @ 5 & 7 days, RT)?
The value was “No, <5 μm @”.

What about the “Visual observation” value ([2]; in Polyoxyl 40 Hydrogenated Castor Oil (KOLLIPHOR RH40) 1% in water, @ 6 days, RT) of the same compound?
The value was “Yes, <5 μm @ 6”.

And the “Visual observation” value ([2]; in Polysorbate 80 0.5% in Saline, @ 7 days, RT & 60 C.)?
Its value is “Yes, >5 μm @”.

What about the “Visual observation” value ([2]; in Polysorbate 80 0.5% in water, @ 22 days, RT & 60 C.) of the same compound?
Its value is “Yes, <5 μm @ 22”.

And the “Visual observation” value ([2]; in Povidone 1% in water, @ 7 days & 21 days, RT)?
The value was “Yes, <5 μm @ 7”.

And the “Visual observation” value ([2]; in Proline 3% in water, @ 7 days, RT)?
Its value is “Yes, >5 μm, @”.

What about the “Visual observation” value ([2]; in Purified Water 100%, @ 5 days, RT & 60 C.) of the same compound?
Its value is “Yes, >5 μm, @ 5”.

What about the “Visual observation” value ([2]; in ST-Cyclomethicone 5 NF 100%, @ 24 hrs & 13 days, RT) of the same compound?
The value was “No, <5 μm @ 24”.

And the “Visual observation” value ([2]; in Saline 0.9% NaCl in water, @ 7 days, RT & 60 C.)?
The value was “Yes, >10 μm, @”.

And the “Visual observation” value ([2]; in Sodium lauryl sulfate 2% in water, @ 7 days, RT)?
Its value is “Yes, >5 μm, @”.

What about the “Visual observation” value ([2]; in Sodium phosphate monobasic 0.75% in water, @ 7 days, RT) of the same compound?
Its value is “Yes, >5 μm, @”.

And the “Visual observation” value ([2]; in Sorbitol 5% in water, @ 7 days, RT)?
The value was “Yes, >5 μm, @”.

And the “Visual observation” value ([2]; in Vitamin E TPGS 0.5% in water, @ 6 days, RT)?
The value was “Yes, <5 μm @ 6”.

What about the “Visual observation” value ([2]; in Zinc acetate […] in water, @ 7 days, RT) of the same compound?
The value was “Yes, >5 μm, @”.

For CC(=O)O[C@H]1C(=O)[C@@]2(C)[C@H]([C@H](OC(=O)c3ccccc3)[C@]3(O)C[C@H](OC(=O)[C@H](O)[C@@H](NC(=O)c4ccccc4)c4ccccc4)C(C)=C1C3(C)C)[C@]1(OC(C)=O)CO[C@@H]1C[C@@H]2O [Paclitaxel, paclitaxel], which “transdermal flux of the paclitaxel through the skin (epidermis and dermis)” value [3] is on record?
The value was “less than 0.01 μg/cm^2”.

Which results are given for CC(=O)O[C@@]12CO[C@@H]1C[C@H](O)[C@@]1(C)C(=O)[C@H](O)C3=C(C)[C@@H](OC(=O)[C@H](O)[C@@H](NC(=O)OC(C)(C)C)c4ccccc4)C[C@@](O)([C@@H](OC(=O)c4ccccc4)[C@H]21)C3(C)C [docetaxel nanoparticles, docetaxel]?
dissolution rate, dissolved in 30 minutes ([4]; made by milling): 9%; dissolution rate, dissolved in 30 minutes ([4]; made by the supercritical carbon dioxide method): 27%

Source: patent US11191717B2, “Topical therapy for the treatment of skin malignancies using nanoparticles of taxanes” (DFB SORIA, LLC, priority 2017, dated 2021)
